Experimental data from paper PMC8333062, “Chemical tools for epichaperome-mediated interactome dysfunctions of the central nervous system” (Nature Communications, 2021).
pEC50: −log10 of the molar value. Values joined by “and” are separate entries in the source; they are usually repeats but may differ in a detail not shown here. Identical values can stand only once. Like-named read-outs stand apart in the source and are kept apart here.

Experiments:
[1] = target: HSP90 pools in JNPL3 (AD transgenic) mouse brain lysate; experiment: Fluorescence polarization (FP) competitive binding, cy3B-GM; conditions: read-out: FP relative affinity
MDA-MB-468 cells = experiment: Cell viability, ATP levels 72 h; type: cell-based, human; conditions: control MDA-MB-468 of Fig. 6f; mean
[2] = Pharmacokinetic studies in mice (LC-MS/MS); type: in vivo, B6D2F1 mice; conditions: male, B6D2F1, mouse, iv, i.v. 10 mg kg^−1
Experimental: Blood and brain tissue were collected following euthanasia at the scheduled time points of 5, 30 min, 1, 4, and 8 h following iv dosing and of 30 min, 1, 4, and 8 h following po dosing. Brain samples were immediately flash frozen in liquid nitrogen following collection and stored at −80 °C until analysis. Blood samples were collected into an EDTA tube by heart puncture and centrifuged at 17,000×g for 5 min at 4 °C to separate the plasma and immediately frozen on dry ice and stored at −80 °C until analysis. […] This was homogenized, extracted with methylene chloride, and evaporated on a GeneVac. […] Drug concentration (μM) in the brain was then modified to account for an average water space of 0.8 mL g^−1.

patient-derived GSCs = experiment: GSC viability (CellTiter-Glo, 48 h); type: cell-based, human; set-up: %Survival of cells at day 0 (ATP levels): concentration or dose not given beside the values; %Survival (ATP levels): reference not given here; conditions: for %Survival (ATP levels): 1 μM, 48 h, individual replicates, listed as PU-H71; for %Survival of cells at day 0 (ATP levels): mean
[3] = cited from earlier work

## CC(C)NCCCn1c(Sc2cc3c(cc2I)OCO3)nc2c(N)ncnc21 [Compound 1, reference compound]
[1]
  pEC50: 7.96
MDA-MB-468 cells
  %Survival of cells at day 0 (ATP levels): -92.5%
[2]; brain, read-out: brain exposure, AUC
  AUC: 0.89 µM·h
[2]; plasma, read-out: plasma exposure, AUC
  AUC: 3.47 µM·h
PAMPA-BBB permeability; Supplementary Table 6
  PAMPA_BBB: 7.3±0.5
PAMPA-BBB permeability; pig, PAMPA, pH 7.4
  Papp at 16 h, 50 μM: 7.3 ×10⁻⁶ cm/s
patient-derived GSCs; GSC #5
  %Survival (ATP levels): 41.476% and 5.798% and 38.7842% and 30.5485%
patient-derived GSCs; GSC #6
  %Survival (ATP levels): -6.57% and -27.89% and 1.15% and -9.59%
patient-derived GSCs; GSC #7
  %Survival (ATP levels): -25.19% and -34.61% and -39.02% and -55.29%
patient-derived GSCs; GSC #8
  %Survival (ATP levels): -77.2% and -77.91% and -68.52% and -70.63%
patient-derived GSCs; GSC #9
  %Survival (ATP levels): -61.441% and -69.079% and -26.869% and -37.387% and -60.84%
patient-derived GSCs; GSC #10
  %Survival (ATP levels): -33.379% and -62.081% and -10.588% and -35.788%
patient-derived GSCs; GSC #13
  %Survival (ATP levels): 34.82% and 22.05% and 9.61% and -0.49%
patient-derived GSCs; GSC #15
  %Survival (ATP levels): -13.07% and -44.27% and -29% and -48.76%
patient-derived GSCs; GSC #18
  %Survival (ATP levels): -1.04% and -53.07% and -13.29% and -52.53% and 13.24% and -19.8%
patient-derived GSCs; GSC #19
  %Survival (ATP levels): -8.867% and -20.5667% and 16.158% and 1.691%
patient-derived GSCs; GSC #24
  %Survival (ATP levels): 12.98% and -42.57% and -22.24% and -59.3% and -24.55% and -39.04%
patient-derived GSCs; GSC #30
  %Survival (ATP levels): -64.892% and -76.295% and -41.317% and -38.952%
patient-derived GSCs; GSC #31
  %Survival (ATP levels): 52.42% and 26.79% and -5.03% and -0.87% and 70.08% and 45.37%
patient-derived GSCs; GSC# 5
  %Survival of cells at day 0 (ATP levels): 29.1%
patient-derived GSCs; GSC# 6
  %Survival of cells at day 0 (ATP levels): -10.7%
patient-derived GSCs; GSC# 8
  %Survival of cells at day 0 (ATP levels): -73.6%
patient-derived GSCs; GSC# 9
  %Survival of cells at day 0 (ATP levels): -51.1%
patient-derived GSCs; GSC# 10
  %Survival of cells at day 0 (ATP levels): -35.4%
patient-derived GSCs; GSC# 13
  %Survival of cells at day 0 (ATP levels): 16.5%
patient-derived GSCs; GSC# 15
  %Survival of cells at day 0 (ATP levels): -33.8%
patient-derived GSCs; GSC# 17
  %Survival of cells at day 0 (ATP levels): 16.9%
patient-derived GSCs; GSC# 18
  %Survival of cells at day 0 (ATP levels): -21.1%
patient-derived GSCs; GSC# 19
  %Survival of cells at day 0 (ATP levels): -2.9%
patient-derived GSCs; GSC# 24
  %Survival of cells at day 0 (ATP levels): -29.1%
patient-derived GSCs; GSC# 30
  %Survival of cells at day 0 (ATP levels): -55.4%
patient-derived GSCs; GSC# 31
  %Survival of cells at day 0 (ATP levels): 31.5%
[3]; 0.5 h, mean n=14
  SUV average, Brain: 0.17 SUV
  SUV average, Lung: 0.66 SUV
  SUV average, Muscle: 0.59 SUV
[3]; 3 h, mean n=24
  SUV average, Brain: 0.1104 SUV
  SUV average, Lung: 0.37 SUV
  SUV average, Muscle: 0.43 SUV
[3]; 24 h, mean n=24
  SUV average, Brain: 0.0956 SUV
  SUV average, Lung: 0.18 SUV
  SUV average, Muscle: 0.18 SUV
